Test results published in the METLIN SMRT retention time set (Domingo-Almenara et al. 2019).

Assay: gradient 5% acetonitrile 3 min, to 50% in 2 min, to 85% in 15 min, held 3 min, 100 µL/min
Settings: column: Zorbax Extend-C18 2.1 x 50 mm; eluents: water / acetonitrile, 0.1% formic acid
Summary of the method: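 Mixtures of ~100 pure standards were chromatographed on a Zorbax Extend-C18 column (2.1 × 50 mm, 1.8 μm) at 100 μL/min using water and acetonitrile, each with 0.1% formic acid. Detection used a quadrupole time-of-flight mass spectrometer in positive and negative ionization mode, and data collection spanned 3 months. Retention time was obtained from adduct peaks picked computationally and each checked manually.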

RP-LC retention time [s] | Compound
681 | Cc1ccc(S(=O)(=O)Nc2cccc(-c3cn4ccccc4n3)c2)cc1[N+](=O)[O-]
813 | O=C(NCCOc1ccc(F)cc1)c1ccc(S(=O)(=O)N2CCCC2)cc1
903 | CC(NC(=O)c1cc2sccc2n1C)c1ccc2c(c1)OCCO2 (configuration not stated)
778 | CCn1ccc(C(=O)Nc2cnc(N3CCCCC3)nc2)n1
587 | CN1CCN(C(=O)c2ccc(-c3nnc4ccc(NC(=O)C5CCC5)cn34)cc2)CC1
650 | CN(C)c1ncncc1N1CCC(C(=O)N2CCN(c3ccccc3F)CC2)CC1
560 | O=C(NCCn1ncccc1=O)C1CCN(c2ccc(-c3ccc(F)cc3)nn2)CC1
627 | O=C(O)c1cccc(-c2ccc(N3CCCCCC3)nc2)c1
640 | CCOc1ccc(C(=O)NC(C)C(=O)Nc2nc3ccccc3[nH]2)cc1 (configuration not stated)
925 | CCc1cccc2c3c([nH]c12)[C@@](CC)(CC(=O)O)OCC3
652 | Cc1cccc(C)c1N1CC(c2nc3ccccc3n2CC(=O)N2CCOCC2)CC1=O (configuration not stated)
1020 | O=C(Cn1nc2c3cc(-c4ccc(Cl)cc4)nn3ccn2c1=O)Nc1cc(F)ccc1F
902 | Cc1c(C(=O)C(=O)N2CCc3ccccc32)c2ccccc2n1C
1090 | Cc1cc(C)c(S(=O)(=O)N2CCc3c(c(-c4nnc(-c5ccccc5)o4)nn3C)C2)c(C)c1
756 | Cn1c(=O)c(F)c(Nc2ccc(I)cc2F)c2c(=O)n(C[C@@H](O)CO)cnc21
963 | Cn1ccc2cc(S(=O)(=O)N3CCC(C(=O)N4CCN(c5ccccc5)CC4)CC3)ccc21
629 | CC(C)NC(=O)C1CCN(c2cnc(N3CCSCC3)nc2)CC1
757 | O=C(NCC(O)Cc1ccccc1)c1cccc(Cl)c1 (configuration not stated)
776 | O=C1NC(c2cccc3ccccc23)Nc2ccccc21 (configuration not stated)
713 | COc1ccc(N2CCN(c3cc(SCC(=O)NCC4CCCO4)ncn3)CC2)cc1 (configuration not stated)
626 | Cc1[nH]ncc1CNC(=O)C1CCN(C(=O)c2ncn3c2COC(c2ccc(F)cc2)C3)CC1 (configuration not stated)
692 | CC(=O)N1CCc2cc(N3CC(C(=O)NCc4ccc(F)cc4F)CC3=O)ccc21 (configuration not stated)

RP-LC retention time [s] | Compound
742 | O=C(NCc1ccc(Cl)cc1)c1cccn1-c1cccnc1
764 | O=C(NC1CCN(c2ccc(F)cc2)C1=O)c1ccc2c(c1)OCO2 (configuration not stated)
861 | Cc1nnc(N2CCCC(C(=O)NCCC3=CCCCC3)C2)c2nn(-c3ccc(Cl)cc3)c(C)c12 (configuration not stated)
827 | O=C(NCCCN1CCCc2ccccc21)C1CCc2nc(N3CCCCC3)ncc2C1 (configuration not stated)
809 | Cc1cccc(N2CCN(C(=O)c3csc(C(=O)NC4CC4)n3)CC2)c1
855 | O=C(NCC1CCCO1)c1cccn1Cc1noc(-c2ccccc2)n1 (configuration not stated)
621 | CCCCn1cnc2c(nnn2C)c1=O
933 | O=[N+]([O-])c1ccc(-c2cn(-c3ccc(Cl)cc3)cn2)cc1
611 | O=C(Nc1ncccn1)c1ccc(Cl)c(S(=O)(=O)N2CCOCC2)c1
842 | CCOC(=O)c1c(C)c(CCC(=O)NCc2ccc(C)o2)n(C)c1C
1250 | CCCC(=O)Nc1sc2c(c1C(=O)Nc1ccccc1C)CCC2
614 | CCOC(=O)c1cc(S(=O)(=O)N(C)CC(=O)N2CCN(c3ccccn3)CC2)cn1C
823 | Cn1ncc2c(N3CCSCC3)nc(C(=O)NCc3ccc(F)cc3)nc21
576 | COc1cccc(-c2[nH]ncc2CN2CCC3(CC2)CC(O)CCO3)c1 (configuration not stated)
747 | COCCNC(=O)N(C)CCc1noc(COc2ccc(Cl)cc2)n1
675 | CC(=O)Nc1ccc(C(=O)NC2CCN(c3cc(-c4ccc(Cl)cc4)[nH]n3)C2)cc1 (configuration not stated)
1060 | COc1ccc(-c2nc(C3CC(=O)N(c4ccc(Cl)cc4)C3)no2)cc1 (configuration not stated)
856 | CC(C)c1ccc(OCC(=O)NCCS(=O)(=O)N2CCN(c3ncccn3)CC2)cc1
784 | CNC(=O)Nc1ccc(OC)c(NC(=O)NC(=O)c2cc(F)c(F)cc2Cl)c1
829 | CCc1noc2nc(CCC(=O)NCc3ccco3)nc(N3CCCCC3)c12
1100 | CCOC(=O)C1CCC(CNC(=O)Nc2ccc(-c3nc(-c4ccccc4)co3)cc2)CC1 (configuration not stated)
770 | CC1CCN(C(=O)Cc2nnc(-c3ccccc3)o2)CC1

RP-LC retention time [s] | Compound
794 | CC1(C)CCCC2(C)C(OCCO)=CC(=O)C=C12 (configuration not stated)
892 | Cc1cc(C)n(-c2ccc(CNC(=O)c3ccc(Cl)s3)cc2)n1
994 | COc1ccc(C)cc1NC(=O)C1CCN(S(C)(=O)=O)c2ccccc2O1 (configuration not stated)
1010 | Cc1ccc(S(=O)(=O)N2C(=O)CCC2C(=O)NC2CCCCCC2)cc1C (configuration not stated)
740 | Cc1ccc(Cn2c(=O)n(CCNC(=O)C3CC3)c3ncccc32)cc1
580 | O=C(Nc1ccc2c(c1)OCCO2)N1CCC(Cc2nc(-c3ccncc3)n[nH]2)C1 (configuration not stated)
1040 | c1ccc(-c2nnc(-c3nc(NCCc4cccs4)c4ccccc4n3)o2)cc1
785 | O=C(NCc1ccco1)C1CCN(c2ccc(=O)n(-c3cccc(Cl)c3)n2)CC1
819 | CC(C)CC(=O)Nc1ccc(-n2cnc(C(=O)N3CCN(c4ccccc4)CC3)c2)nc1
736 | CCCNC(=O)C1CCN(Cc2cc3ccccc3n2Cc2ccccc2Cl)CC1
828 | CN(CC(=O)N1CCN(c2ccc(Cl)cc2)CC1)S(=O)(=O)c1ccc2c(c1)CCCC(=O)N2
658 | CN1C(=O)C(CC(=O)N2CCCCC2)Sc2ncccc21 (configuration not stated)
660 | COc1ccc(C(=O)NC2CCN(c3ccc(=O)[nH]n3)C2)c(OC)n1 (configuration not stated)
806 | Cc1ccc(NC(=O)N2CCC(n3c(-c4ccco4)nc4cccnc43)C2)cc1Cl (configuration not stated)
582 | COc1cccc(N2CCN(CC(=O)N3CCC(C(N)=O)CC3)CC2)c1
590 | O=C1Nc2ccccc2SC1C(=O)N1CCC(C(=O)N2CCN(C3CCCCC3)CC2)CC1 (configuration not stated)
958 | O=C(Cc1csc2nc(-c3cccc(Br)c3)cn12)Nc1ccccc1F
577 | CCCN1CCN(C(=O)CN(C)S(=O)(=O)c2ccc3c(c2)CCCC(=O)N3)CC1
870 | O=C(Nc1cccc(Cl)c1)Nc1nccs1
643 | O=C(c1ccc2nc[nH]c2c1)N1CCCn2nc(-c3ccc(Cl)cc3)cc2C1
677 | Cc1ccc2nc3c(C(=O)O)cccn3c(=O)c2c1
726 | COC(=O)C1C(=O)C2=C(CC1C)NC(=O)CC2c1cccc(OC)c1 (configuration not stated)

Compound | RP-LC retention time [s]
COc1ccc2c(c1)C1(CCN(C(=O)NCCc3ccccc3)C1)C(=O)N2 (configuration not stated) | 750
